21 compounds from patent US20240336606A1 (Suzhou Zelgen Biopharmaceuticals Co., Ltd., priority 2020, published 2024) can be followed below.

Counter-ions that a name gives are not always drawn. Some results are limits rather than exact numbers.

In one test the target is T1, binding of KRAS^G12C to SOS1 (Homo sapiens, UniProt Q07889).
T1 construct: Tag1 (unspecified)
T1 sequence (Q07889 1-1333): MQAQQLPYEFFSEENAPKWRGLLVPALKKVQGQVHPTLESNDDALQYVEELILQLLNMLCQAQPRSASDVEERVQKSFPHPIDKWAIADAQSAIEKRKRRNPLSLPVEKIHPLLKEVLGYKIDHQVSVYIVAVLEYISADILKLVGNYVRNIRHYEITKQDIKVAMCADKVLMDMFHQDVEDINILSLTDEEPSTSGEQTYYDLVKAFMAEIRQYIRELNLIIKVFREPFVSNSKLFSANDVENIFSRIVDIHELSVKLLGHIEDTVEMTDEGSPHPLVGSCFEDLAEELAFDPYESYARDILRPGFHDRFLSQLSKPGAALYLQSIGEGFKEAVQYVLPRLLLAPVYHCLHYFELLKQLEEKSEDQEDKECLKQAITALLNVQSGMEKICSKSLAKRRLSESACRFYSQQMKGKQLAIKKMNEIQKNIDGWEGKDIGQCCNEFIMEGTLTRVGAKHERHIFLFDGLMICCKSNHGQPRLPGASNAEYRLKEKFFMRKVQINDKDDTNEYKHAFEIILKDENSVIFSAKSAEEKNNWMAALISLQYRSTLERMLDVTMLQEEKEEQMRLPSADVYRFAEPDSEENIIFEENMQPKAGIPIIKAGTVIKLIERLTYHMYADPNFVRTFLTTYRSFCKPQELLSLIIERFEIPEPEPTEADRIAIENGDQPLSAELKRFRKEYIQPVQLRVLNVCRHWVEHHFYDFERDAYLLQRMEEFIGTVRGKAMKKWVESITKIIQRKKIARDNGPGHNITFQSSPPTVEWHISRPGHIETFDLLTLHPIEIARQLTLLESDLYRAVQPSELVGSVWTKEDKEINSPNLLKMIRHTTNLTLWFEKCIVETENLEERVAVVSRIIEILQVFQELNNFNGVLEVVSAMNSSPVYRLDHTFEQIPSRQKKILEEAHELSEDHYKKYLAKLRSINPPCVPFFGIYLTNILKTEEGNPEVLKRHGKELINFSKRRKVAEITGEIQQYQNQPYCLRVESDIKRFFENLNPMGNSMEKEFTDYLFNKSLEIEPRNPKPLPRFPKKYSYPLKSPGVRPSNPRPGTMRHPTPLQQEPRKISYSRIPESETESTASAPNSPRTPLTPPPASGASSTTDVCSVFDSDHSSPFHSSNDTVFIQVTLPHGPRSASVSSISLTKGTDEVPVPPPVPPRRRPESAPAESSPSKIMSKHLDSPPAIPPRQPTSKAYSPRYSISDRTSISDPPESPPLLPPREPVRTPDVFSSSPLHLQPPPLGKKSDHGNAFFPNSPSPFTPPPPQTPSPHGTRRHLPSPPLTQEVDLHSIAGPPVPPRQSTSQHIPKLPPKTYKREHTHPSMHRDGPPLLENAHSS
Nature of the test: Inhibition of the binding of KRAS^G12C to SOS1. The note with it: Tag1-SOS1 / Tag2-KRAS^G12C, 2 h incubation at room temperature; read-out: IC50 (nM), inhibitory activity on the binding of KRAS^G12C to SOS1. In a few lines: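 Tag1-SOS1 and Tag2-KRAS^G12C mixed with serially diluted compound (final 0.25% DMSO), then anti-Tag1-Tb3+ and anti-Tag2-XL665 added for 2 h at room temperature. IC50 from curve fit of the TR-FRET signal.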
`COc1cc2nc(C)nc(N[C@H](C)c3cc(N)cc(C(F)(F)F)n3)c2cc1OCCOC1COC1` [Example 70, (R)—N-(1-(4-Amino-6-(trifluoromethyl)pyridin-2-yl)ethyl)-7-methoxy-2-methyl-6-(2-(oxetan-3-yloxy)ethoxy)quinazolin-4-amine]: the IC50 amounted to 24 nM. Still for that read-out and setting: for `COCCOc1cc2c(N[C@@H](C)c3cccc(C(F)(F)C(C)(C)O)c3F)nc(C)nc2cc1OC` [Example 71, (S)-1,1-Difluoro-1-(2-fluoro-3-(1-((7-methoxy-6-(2-methoxyethoxy)-2-methylquinazolin-4-yl)amino)ethyl)phenyl)-2-methylpropan-2-ol formate] the value was 314 nM; for `COc1cc2nc(C)nc(N[C@H](C)c3cc(N)cc(C(F)(F)F)n3)c2cc1OCCOC1(C)CCC1` [Example 73, (R)—N-(1-(4-Amino-6-(trifluoromethyl)pyridin-2-yl)ethyl)-7-methoxy-2-methyl-6-(2-(1-methylcyclobutyloxy)ethoxy)quinazolin-4-amine], 15 nM; for `COCCOc1cc2c(N[C@H](C)c3cc(C(F)(F)C(C)(C)O)ccn3)nc(C)nc2cc1OC` [Example 75], 40 nM.

`COCCOc1cc2c(N[C@H](C)c3cccc(C(F)(F)C(C)(C)O)n3)nc(C)nc2cc1OC` [Example 76]: the IC50 turned out to be 188 nM. Same read-out and setting: the value for `COCCOc1cc2c(N[C@H](C)c3cncc(C(F)(F)C(C)(C)O)c3)nc(C)nc2cc1OC` [Example 77] was 924 nM; that for `COCCOc1cc2c(N[C@H](C)c3cccc(S(N)(=O)=O)c3)nc(C)nc2cc1OC` [Example 84, (R)-3-(1-((7-Methoxy-6-(2-methoxyethoxy)-2-methylquinazolin-4-yl)amino)ethyl)benzenes ulfonamide] was 18 nM. On the same count and under the same terms, the value for `COCCOc1cc2c(N[C@H](C)c3cc(OC)cc(C(F)(F)C(C)(C)O)c3)nc(C)nc2cc1OC` [Example 87, (R)-1,1-Difluoro-1-(3-methoxy-5-(1-((7-methoxy-6-(2-methoxyethoxy)-2-methylquinazolin-4-yl)amino)ethyl)phenyl)-2-methylpropan-2-ol] was 170 nM. For `COCCOc1cc2c(N[C@H](C)c3cccc(C(F)(F)C(C)(C)O)c3Cl)nc(C)nc2cc1OC` [Example 88, (R)-1-(2-Chloro-3-(1-((7-methoxy-6-(2-methoxyethoxy)-2-methylquinazolin-4-yl)amino)ethyl)phenyl)-1,1-difluoro-2-methylpropan-2-ol], the IC50 is 20 nM.

Another test relates to H358 cells. In words: Inhibition of H358 cell proliferation (CellTiter-Glo 3D, 7 days). The test is classed as cell-based. The note with it: Homo sapiens, 168 h, NCI-H358, 7 days, read-out: IC50 (nM), inhibitory activity on H358 cell proliferation. How it is done:
• (a) The cells were thawed in T75 cell culture flasks:
• (b) When 80-90% cell confluence was achieved, the cells were passaged.
The diluted test compounds were added to a 384-well cell culture plate using a nanoliter pipetting system, and duplicate wells were set. An equal volume of medium was added to the positive control group; an equal volume of DMSO was added to the negative control group. The plate was centrifuged at 1000 rpm at room temperature for 1 min.
The cells were inoculated into a) 384-well culture plate, an equal volume of cells was added to the negative control group, and only an equal volume of medium was added to the positive control group. The plate was centrifuged at 1000 rpm at room temperature for 1 min. The final concentration of DMSO in the final compounds was 0.5%. The plate was incubated in a thermostatic incubator at 37° C. with 5% CO2 for 7 days.
CellTiter-Glo® 3D was added to b) 384-well cell culture plate at 20 μL/well. The plate was shaken at 320 rpm in the dark for 20 min, and incubated at room temperature in the dark for 2 h. The luminescence values were read using an Envision multi-mode microplate reader.
The inhibition rates of the compounds at different concentrations were calculated in Excel, and then inhibition curves were plotted and relevant parameters including minimum inhibition rate, maximum inhibition rate and IC50 were calculated using GraphPad Prism software.
Take `COCCOc1cc2c(N[C@H](C)c3cccc(C(F)(F)C(C)(C)O)c3C)nc(C)nc2cc1OC` [Example 90, (R)-1,1-Difluoro-1-(3-(1-((7-methoxy-6-(2-methoxyethoxy)-2-methylquinazolin-4-yl)amino)ethyl)-2-methylphenyl)-2-methylpropan-2-ol]: the IC50 worked out at 48.6 nM. In the case of `COCCOc1cc2c(N[C@H](C)c3cc(C#N)cc(C(F)(F)C(C)(C)O)c3)nc(C)nc2cc1OC` [Example 91, (R)-3-(1,1-Difluoro-2-hydroxy-2-methylpropane)-5-(1-((7-methoxy-6-(2-methoxyethoxy)-2-methylquinazolin-4-yl)amino)ethyl)benzonitrile], the IC50 is over 10000 nM. On the same count and under the same terms, the value for `COc1cc2nc(C)nc(N[C@H](C)c3cccc(C(F)(F)C(C)(C)O)c3F)c2cc1OCCOC1COC1` [Example 92, (R)-1,1-Difluoro-1-(2-fluoro-3-(1-((7-methoxy-2-methyl-6-(2-(oxetan-3-yloxy)ethoxy)quinazolin-4-yl)amino)ethyl)phenyl)-2-methylpropan-2-ol] was 18.2 nM; that for `COc1cc2nc(C)nc(N[C@H](C)c3cccc(C(F)(F)C(C)(C)O)c3F)c2cc1OCCOC1CC1` [Example 93, (R)-1-(3-(1-((6-(2-Cyclopropyloxyethoxy)-7-methoxy-2-methylquinazolin-4-yl)amino)ethyl)-2-fluorophenyl)-1,1-difluoro-2-methylpropan-2-ol] was 40.9 nM; that for `[2H]C([2H])([2H])Oc1cc2nc(C)nc(N[C@H](C)c3cccc(C(F)(F)C(C)(C)O)c3F)c2cc1OCCOC` [Example 97, (R)-1,1-Difluoro-1-(2-fluoro-3-(1-((7-deuteratedmethoxy-6-(2-methoxyethoxy)-2-methylquinazolin-4-yl)amino)ethyl)phenyl)-2-methylpro pan-2-ol] was 15.5 nM.

As for `CCOc1cc2nc(C)nc(N[C@H](C)c3cccc(C(F)(F)C(C)(C)O)c3F)c2cc1OCCOC` [Example 98, (R)-1-(3-(1-((7-Ethoxy-6-(2-methoxyethoxy)-2-methylquinazolin-4-yl)amino)ethyl)-2-fluor ophenyl)-1,1-difluoro-2-methylpropan-2-ol], the IC50 turned out to be 12.8 nM. The same measure, in the same setting: the value for `COCCOc1cc2c(N[C@H](C)c3cccc(C(F)(F)C(C)(C)O)c3F)nc(C)nc2cc1OC(C)C` [Example 99, (R)-1,1-Difluoro-1-(2-fluoro-3-(1-((7-isopropoxy-6-(2-methoxyethoxy)-2-methylquinazolin-4-yl)amino)ethyl)phenyl)-2-methylpropan-2-ol] was 20 nM.

For `COCCOc1cc2c(N[C@H](C)c3cccc(C(F)(F)C(C)(C)O)c3F)nc(C)nc2cc1-c1cccnc1` [Example 101, (R)-1,1-Difluoro-1-(2-fluoro-3-(1-((6-(2-methoxyethoxy)-2-methyl-7-(pyridin-3-yl)quinazolin-4-yl)amino)ethyl)phenyl)-2-methylpropyl-2-ol], the IC50 was 15.5 nM.

For the compound `COCCOc1cc2c(N[C@H](C)c3cccc(C(F)(F)C(C)(C)O)c3F)nc(C)nc2cc1-c1cnn(C)c1` [Example 102, (R)-1,1-Difluoro-1-(2-fluoro-3-(1-((6-(2-methoxyethoxy)-2-methyl-7-(1-methyl-1H-pyrazol-4-yl)quinazolin-4-yl)amino)ethyl)phenyl)-2-methylpropyl-2-ol], the IC50 stood at 13.3 nM. For `COCCOc1cc2c(N[C@H](C)c3cccc(C(F)(F)C(C)(C)O)c3F)nc(C)nc2cc1OC1COC1` [Example 103], the IC50 came to 23.5 nM. On the same count and under the same terms, the value for `COCCOc1cc2nc(C)nc(N[C@H](C)c3cc(N)cc(C(F)(F)C(C)(C)O)c3)c2cc1OCCOC` [Example 113, (R)-1-(3-Amino-5-(1-((6,7-bis(2-methoxyethoxy)-2-methylquinazolin-4-yl)amino)ethyl)phenyl)-1,1-difluoro-2-methylpropan-2-ol] was 10.4 nM; that for `COc1cc2nc(C)nc(N[C@H](C)c3cc(N)cc(C(F)(F)C(C)(C)O)c3)c2cc1OCCOc1cccnc1` [Example 115, (R)-1-(3-Amino-5-(1-(7-methoxy-2-methyl-6-(2-(pyridine-3-oxy)ethoxy)quinazolin-4-yl)amino)ethyl)phenyl-1,1-difluoro-2-methylpropan-2-ol] was 9.92 nM.
